Reference: PMC7577563 (Journal of medicinal chemistry, 2019)
Square brackets hold non-standard residues; d marks the D form. Peptide text beside a SMILES is read from it. Tyr(SO2F) = N[C@@H](Cc1ccc(OS(=O)(=O)F)cc1)C(=O)O; NMeA = CN[C@@H](C)C(=O)O

Legend:
Plasma stability = format: in vitro ADME; conditions: mouse plasma

Structure (SMILES) | Aqueous stability at physiological pH (Chemical) | Plasma stability (Plasma stability)
CN[C@@H](C)C(=O)N[C@@H](CNCc1ccc(S(=O)(=O)F)cc1)C(=O)N1CCC[C@H]1C(=O)N[C@@H](Cc1ccccc1)C(N)=O [Compound 3] | intermediate stability | –
CN[C@@H](C)C(=O)N[C@@H](CNC(=O)c1ccc(S(=O)(=O)F)cc1)C(=O)N1CCC[C@H]1C(=O)N[C@@H](Cc1ccccc1)C(N)=O [Compound 2] | the least stable | –
CN[C@@H](C)C(=O)N[C@@H](Cc1ccc(OS(=O)(=O)F)cc1)C(=O)N1CCC[C@H]1C(=O)N[C@@H](Cc1ccccc1)C(N)=O [Compound 4] (H-[NMeA][Tyr(SO2F)]PF-NH2) | the most stable | –
CN[C@@H](C)C(=O)N[C@@H](CNCc1ccc(S(=O)(=O)F)cc1)C(=O)N1CCC[C@H]1C(=O)N[C@@H]1CCc2c(F)cccc21 [Compound 11, 4-((((S)-3-((S)-2-(((R)-4-fluoro-2,3-dihydro-1H-inden-1-yl)carbamoyl)pyrrolidin-1-yl)-2-((S)-2(methylamino)propanamido)-3-oxopropyl)amino)methyl)benzenesulfonyl fluoride] | – | completely degraded in plasma after 40 minutes
